Experimental data taken from US11548868B2, “Heterocyclic compounds, compositions comprising heterocyclic compound, and methods of use thereof” (JS INNOPHARM (SHANGHAI) LTD, priority 2017, dated 2023).

Assays:
[1] = molecular target: Recombinant human IDO1 (Homo sapiens, UniProt P14902); assay: IDO1 Enzymatic Assay; details: recombinant human IDO1 40 nM, L-tryptophan 100 μM, 40 min room temperature, N′-formylkynurenine absorbance 321 nm; read-out: IDO1 biochemical activity*
Procedure: The IDO1 biochemical inhibitory activity is determined by measuring the decrease in N′-formylkynurenine from tryptophan catalyzed by IDO1 enzyme. Recombinant human IDO1 (40 nM), L-tryptophan (100 μM), L-ascorbic acid (20 mM), methylene Blue (20 μM), catalase (0.2 mg/mL), and serial dilutions of the test compounds in a total volume of […] containing DMSO (with final DMSO concentration of 0.5%) and a pH 7.5 buffer containing potassium phosphate (50 mM) were added into each well in a 96-well plate. After incubation at room temperature for 40 min, the absorbance of the reaction mixture was read at 321 nm to measure the formation of N′-formylkynurenine by SpectraMax microplate reader. Percent inhibition of the test compounds was determined by measuring the decrease in N′-formylkynurenine as compared to the control of DMSO vehicle, which was calculated by formula of (WC−WT)/WC, where WC is the mean absorbance of the control well minus blank well; WT is the mean absorbance of the test well minus the blank well. Data was analyzed by GraphPad Prism 5 and the IC50 values were obtained by non-linear regression.
The IC50 values of IDO1 biochemical activity for the examples disclosed herein are listed in Table 2, A: ≤0.1 μM; B: >0.10 μM and ≤0.5 μM; C: >0.5 μM and ≤1.0 μM; and D: >1.0 μM.

[2] = molecular target: T1, TDO2 in A172 cancer cells (Homo sapiens, UniProt P48775); assay: TDO2 Cellular Assay (kynurenine production in A172 cancer cells); format: cell-based; details: L-Trp 1 mM, 24 hours incubation, kynurenine at 490 nm
T1 construct: endogenous in cells; host or cells: A172 cancer cells
T1 sequence (P48775 whole entry): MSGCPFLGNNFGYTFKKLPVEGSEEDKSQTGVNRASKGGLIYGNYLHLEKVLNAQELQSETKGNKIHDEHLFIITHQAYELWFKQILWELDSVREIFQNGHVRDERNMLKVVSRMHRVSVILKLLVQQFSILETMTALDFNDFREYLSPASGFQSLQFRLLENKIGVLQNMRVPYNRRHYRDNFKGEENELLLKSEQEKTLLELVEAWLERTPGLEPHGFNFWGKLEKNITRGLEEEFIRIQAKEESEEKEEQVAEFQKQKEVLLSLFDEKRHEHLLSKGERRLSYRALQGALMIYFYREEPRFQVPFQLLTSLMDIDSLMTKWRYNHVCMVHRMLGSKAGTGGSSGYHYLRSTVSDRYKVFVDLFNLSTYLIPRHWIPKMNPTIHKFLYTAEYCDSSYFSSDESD
Method in brief: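 A172 cells seeded overnight, then given 1 mM L-Trp and test compound (0–25 μM, 0.25% DMSO) for 24 h at 37 °C. Supernatant treated with TCA at 50 °C to convert N-formylkynurenine, kynurenine detected with p-dimethylaminobenzaldehyde at 490 nm; IC50 by non-linear regression of inhibition versus DMSO control.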

Chain of Recombinant human IDO1 (P14902 whole entry): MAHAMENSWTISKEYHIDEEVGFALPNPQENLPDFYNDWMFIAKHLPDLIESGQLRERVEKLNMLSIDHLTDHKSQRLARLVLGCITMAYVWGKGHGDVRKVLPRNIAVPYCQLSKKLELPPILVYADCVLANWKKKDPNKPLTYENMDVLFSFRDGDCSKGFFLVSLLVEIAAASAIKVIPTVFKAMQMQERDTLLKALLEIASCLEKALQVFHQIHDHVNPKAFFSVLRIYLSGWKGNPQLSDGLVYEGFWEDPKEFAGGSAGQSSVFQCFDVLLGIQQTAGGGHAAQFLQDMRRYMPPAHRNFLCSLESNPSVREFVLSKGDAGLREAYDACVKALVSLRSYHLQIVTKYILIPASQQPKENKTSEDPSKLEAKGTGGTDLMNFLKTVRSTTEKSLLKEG

SMILES | IC50 [1] [nM] | IC50 [2] [nM]
CS(=O)(=O)N1CCC2CN(c3cc(Cl)cc4[nH]ncc34)CC21 (stereo not shown) [Example 23, 6-chloro-4-(1-(methylsulfonyl)hexahydropyrrolo[3,4-b]pyrrol-5(1H)-yl)-1H-indazole] | > 1000 | 500 to 1000
CS(=O)(=O)NC1[C@H]2CN(c3cc(Cl)cc4[nH]ncc34)C[C@@H]12 (stereo partly drawn) [Example 16, N-((1R,5S)-3-(6-chloro-1H-indazol-4-yl)-3-azabicyclo[3.1.0]hexan-6-yl)methanesulfonamide] | > 1000 | 1000 to 5000
Cn1ncc2c(N3CC4CCN(S(C)(=O)=O)C4C3)cc(Cl)cc21 (stereo not shown) [Example 20, 6-chloro-1-methyl-4-(1-(methylsulfonyl)hexahydropyrrolo[3,4-b]pyrrol-5(1H)-yl)-1H-indazole] | > 1000 | > 5000
CS(=O)(=O)N[C@@H]1[C@@H]2CN(c3cc(Cl)cc4[nH]ncc34)C[C@@H]21 [Example 24, N-((1R,5S,6r)-3-(6-chloro-1H-indazol-4-yl)-3-azabicyclo[3.1.0]hexan-6-yl)methanesulfonamide] | > 1000 | 1000 to 5000
CC(=O)NC1[C@H]2CN(c3cc(Cl)cc4[nH]ncc34)C[C@@H]12 (stereo partly drawn) [Example 17, N-((1R,5S)-3-(6-chloro-1H-indazol-4-yl)-3-azabicyclo[3.1.0]hexan-6-yl)acetamide] | > 1000 | 1000 to 5000

Continued, values first:

IC50 [1] [nM] | IC50 [2] [nM] | SMILES
> 1000 | 500 to 1000 | CC(=O)N1C[C@@H]2CN(c3cc(Cl)cc4[nH]ncc34)C[C@@H]2C1 [Example 14, 1-((3aR,6aS)-5-(6-chloro-1H-indazol-4-yl)hexahydropyrrolo[3,4-c]pyrrol-2(1H)-yl)ethanone]
> 1000 | ≤ 500 | CC1(C)C2CN(c3cc(Cl)cc4[nH]ncc34)CC2CN1S(=O)(=O)C1CC1 (stereo not shown) [Example 28, 6-chloro-4-(5-(cyclopropylsulfonyl)-4,4-dimethylhexahydropyrrolo[3,4-c]pyrrol-2(1H)-yl)-1H-indazole]
> 1000 | ≤ 500 | CC(=O)N1CCCC2CN(c3cc(Cl)cc4[nH]ncc34)CC21 (stereo not shown) [Example 15, 1-(6-(6-chloro-1H-indazol-4-yl)octahydro-1H-pyrrolo[3,4-b]pyridin-1-yl)ethanone]
> 1000 | ≤ 500 | CS(=O)(=O)N1C[C@H]2CN(c3cc(Cl)cc4[nH]ncc34)C[C@H]2C1 [Example 12, 6-chloro-4-((3aR,6aS)-5-(methylsulfonyl)hexahydropyrrolo[3,4-c]pyrrol-2(1H)-yl)-1H-indazole]
> 1000 | 500 to 1000 | CC(=O)N1CCC2CN(c3cc(Cl)cc4[nH]ncc34)CC21 (stereo not shown) [Example 19, 1-(5-(6-chloro-1H-indazol-4-yl)hexahydropyrrolo[3,4-b]pyrrol-1(2H)-yl)ethanone]
> 1000 | 500 to 1000 | CC1(C)C2CN(c3cc(Cl)cc4[nH]ncc34)CC2CN1C(=O)c1ccc(C#N)cc1 (stereo not shown) [Example 27, 4-(5-(6-chloro-1H-indazol-4-yl)-1,1-dimethyloctahydropyrrolo[3,4-c]pyrrole-2-carbonyl)benzonitrile]
